How the values were obtained:
KRAS(G12D)/SOS1 = target: T1, KRAS(G12D)/SOS1 (Homo sapiens, UniProt P01116, G12D); assay: KRAS(G12D)/SOS1 homogeneous time-resolved fluorescence (HTRF) assay; assay type: binding; settings: absence of GTP; 4° C., 3 hr
T1 construct: purchased Cisbio 63ADK000CB17PEH
Outline: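 Disruption of the KRAS(G12D)/SOS1 pairing, in the absence of GTP, was read by time-resolved FRET after a 3 hr sealed incubation at 4 °C. Test compounds spanned 20 µM down to 1.02 nM in 3-fold steps. IC50 values correspond to half-maximal inhibition.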

[1] = test system: SW1990 pancreatic adenocarcinoma cells [homozygous G12D]; assay: Cancer cell line proliferation (CellTiter-Glo), SW1990; assay type: cell-based; settings: Homo sapiens, 72 hr treatment, read-out: SW1990 CTG (EC50)
Protocol: The following cancer cell lines were employed: AGS gastric carcinoma [heterozygous G12D](ATCC, CRL-1739); A-427 lung carcinoma [heterozygous G12D](ATCC, HTB-53); ASPC1 pancreatic adenocarcinoma [homozygous G12D](ATCC, CRL-1682) and SW1990 pancreatic adenocarcinoma [homozygous G12D](ATCC CRL-2172). Cell lines were cultured essentially according to ATCC recommendations.
AGS, A-427, ASPC1, SW1990, and GP2D cells were plated in 96-well tissue culture plates at 4,000 cells/well and incubated at 37° C./5% CO2 for 72 hr in 100 μl of media. 3-fold serial dilutions of each test compound were prepared ranging from 20 μM to 1.02 nM. Each cell line was then treated with test compounds at various concentrations with a final concentration of 0.5% DMSO/well, and then incubated at 37° C./5% CO2 for 72 hr. 100 µl of CellTiter-Glo® Reagent (Promega Corporation, Madison, WI) was added to each well and processed according manufacturer's protocol. Results were analyzed and EC50 values were calculated in GraphPad 7 software.

[2] = test system: AGS gastric carcinoma cells [heterozygous G12D]; assay: Cancer cell line proliferation (CellTiter-Glo), AGS; assay type: cell-based; settings: Homo sapiens, 72 hr treatment, read-out: AGS CTG (EC50)
Outline: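 Cells were seeded at 4,000/well and grown 72 hr at 37° C./5% CO2, then exposed for 72 hr to 3-fold serial compound dilutions prepared from 20 μM to 1.02 nM (0.5% DMSO final). Viability was read with CellTiter-Glo and EC50 values were calculated.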

T1 sequence (P01116 1-188 isoform P01116-2 G12D): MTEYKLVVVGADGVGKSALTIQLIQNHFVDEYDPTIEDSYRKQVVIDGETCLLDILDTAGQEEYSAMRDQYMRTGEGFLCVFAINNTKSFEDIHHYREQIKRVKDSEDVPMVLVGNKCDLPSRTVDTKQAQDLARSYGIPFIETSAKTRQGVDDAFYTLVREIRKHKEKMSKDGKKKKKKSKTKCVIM

Row | SMILES | IC50 (KRAS(G12D)/SOS1) [nM] | EC50 [1] [nM] | EC50 [2] [nM]
1 | C#Cc1c(F)ccc2cc(O)cc(-c3ncc4c(N5CC6CCC(C5)N6)nc(OCC5(CN6CCN(C7CN(Cc8ccc(-n9c(C(=O)NC(C)C(F)(F)F)nnc9-c9cc(C(C)C)c(O)cc9O)cc8)C7)CC6)CC5)nc4c3F)c12 (stereo not shown) [Compound 167] | < 100 | < 100 | < 100
2 | C#Cc1c(F)ccc2cc(O)cc(-c3nc(OC)c4c(N5CC6CCC(C5)N6)nc(OCC5(CN6CCN(CC7CCN(Cc8ccc(-n9c(C(=O)NCC(F)(F)F)nnc9-c9cc(C(C)C)c(O)cc9O)cc8)CC7)CC6)CC5)nc4c3F)c12 [Compound 168] | < 100 | < 100 | < 100
3 | C#Cc1c(F)ccc2cc(O)cc(-c3nc(OC)c4c(N5CC6CCC(C5)N6)nc(OCC5(CN6CCN(CC7CCN(Cc8ccc(-n9c(C(=O)NCC)nnc9-c9cc(C(C)C)c(O)cc9O)cc8)CC7)CC6)CC5)nc4c3F)c12 [Compound 169] | < 100 | < 100 | < 100
4 | C#Cc1c(F)ccc2cc(O)cc(-c3nc(OC)c4c(N5CC6CCC(C5)N6)nc(OCC5(CN6CCN(C7CCN(Cc8ccc9c(c8)CN(C(=O)c8cc(O)c(C(C)C)cc8O)C9)CC7)CC6)CC5)nc4c3F)c12 [Compound 170] | < 100 | < 100 | < 100
5 | C#Cc1c(F)ccc2cc(O)cc(-c3ncc4c(N5CC6CCC(C5)N6)nc(OCC5CN(Cc6ccc7c(c6)CN(C(=O)c6cc(C(C)C)c(O)cc6O)C7)C5)nc4c3F)c12 [Compound 172] | < 100 | 100 to 1000 | 100 to 1000
6 | C#Cc1c(F)ccc2cc(O)cc(-c3ncc4c(N5CC6CCC(C5)N6)nc(OCc5ccc6c(c5)CN(C(=O)c5cc(C(C)C)c(O)cc5O)C6)nc4c3F)c12 [Compound 173] | 100 to 1000 | > 1000 | 100 to 1000
7 | C#Cc1c(F)ccc2cc(O)cc(-c3ncc4c(N5CC6CCC(C5)N6)nc(OCC5CN(Cc6ccc(-n7c(C(=O)NC(C)C(F)(F)F)nnc7-c7cc(C(C)C)c(O)cc7O)cc6)C5)nc4c3F)c12 (stereo not shown) [Compound 174] | < 100 | > 1000 | 100 to 1000
8 | C#Cc1c(F)ccc2cc(O)cc(-c3ncc4c(N5CC6CCC(C5)N6)nc(OCC5CN(Cc6ccc(-n7c(C(=O)NCC(F)(F)F)nnc7-c7cc(C(C)C)c(O)cc7O)cc6)C5)nc4c3F)c12 [Compound 175] | < 100 | 100 to 1000 | 100 to 1000
9 | C#Cc1c(F)ccc2cc(O)cc(-c3ncc4c(N5CC6CCC(C5)N6)nc(OC5CN(Cc6ccc(-n7c(C(=O)NC(C)C(F)(F)F)nnc7-c7cc(C(C)C)c(O)cc7O)cc6)C5)nc4c3F)c12 (stereo not shown) [Compound 176] | 100 to 1000 | > 1000 | 100 to 1000
10 | C#Cc1c(F)ccc2cc(O)cc(-c3ncc4c(N5CC6CCC(C5)N6)nc(OCC5(CN6CCN(C7CN(Cc8ccc9c(c8)CN(C(=O)c8cc(C(C)C)c(O)cc8O)C9)C7)CC6)CC5)nc4c3F)c12 [Compound 177] | < 100 | < 100 | < 100
11 | C#Cc1c(F)ccc2cc(O)cc(-c3nc(OC)c4c(N5CC6CCC(C5)N6)nc(OCC5(CN6CCN(C7CCN(Cc8ccc(-n9c(C(=O)NC(C)C(F)(F)F)nnc9-c9cc(C(C)C)c(O)cc9O)cc8)CC7)CC6)CC5)nc4c3F)c12 (stereo not shown) [Compound 178] | < 100 | < 100 | < 100
12 | C#Cc1c(F)ccc2cc(O)cc(-c3ncc4c(N5CC6CCC(C5)N6)nc(OC5CN(Cc6ccc(-n7c(C(=O)NCC(F)(F)F)nnc7-c7cc(C(C)C)c(O)cc7O)cc6)C5)nc4c3F)c12 [Compound 179] | 100 to 1000 | > 1000 | 100 to 1000
13 | C#Cc1c(F)ccc2cc(O)cc(-c3ncc4c(N5CC6CCC(C5)N6)nc(OCC5(CN6CCC(N7CCN(Cc8ccc9c(c8)CN(C(=O)c8cc(C(C)C)c(O)cc8O)C9)CC7)CC6)CC5)nc4c3F)c12 [Compound 180] | < 100 | < 100 | < 100
14 | C#Cc1c(F)ccc2cc(O)cc(-c3ncc4c(N5CC6CCC(C5)N6)nc(OCC5(CN6CCC(N7CCN(Cc8ccc(-n9c(C(=O)NC(C)C(F)(F)F)nnc9-c9cc(C(C)C)c(O)cc9O)cc8)CC7)CC6)CC5)nc4c3F)c12 (stereo not shown) [Compound 181] | < 100 | < 100 | < 100
15 | C#Cc1c(F)ccc2cc(O)cc(-c3nc(OC)c4c(N5CC6CCC(C5)N6)nc(OCC5(CN6CCC(C7CCN(Cc8ccc(-n9c(C(=O)NC(C)C(F)(F)F)nnc9-c9cc(C(C)C)c(O)cc9O)cc8)CC7)CC6)CC5)nc4c3F)c12 (stereo not shown) [Compound 182] | < 100 | < 100 | < 100
16 | C#Cc1c(F)ccc2cc(O)cc(-c3ncc4c(N5CC6CCC(C5)N6)nc(OCC5(CN6CCC7(CCN(Cc8ccc(-n9c(C(=O)NC(C)C(F)(F)F)nnc9-c9cc(C(C)C)c(O)cc9O)cc8)CC7)CC6)CC5)nc4c3F)c12 (stereo not shown) [Compound 183] | < 100 | < 100 | < 100
17 | C#Cc1c(F)ccc2cc(O)cc(-c3ncc4c(N5CC6CCC(C5)N6)nc(OCC5(CN6CCC7(CCN(Cc8ccc9c(c8)CN(C(=O)c8cc(C(C)C)c(O)cc8O)C9)CC7)CC6)CC5)nc4c3F)c12 [Compound 184] | < 100 | < 100 | < 100
18 | C#Cc1c(F)ccc2cc(O)cc(-c3ncc4c(N5CC6CNC(C6)C5)nc(OCC5(CN6CCC(C7CCN(Cc8ccc(-n9c(C(=O)NC(C)C(F)(F)F)nnc9-c9cc(C(C)C)c(O)cc9O)cc8)CC7)CC6)CC5)nc4c3F)c12 (stereo not shown) [Compound 185] | 100 to 1000 | 100 to 1000 | 100 to 1000
19 | C#Cc1c(F)ccc2cc(O)cc(-c3nc(OC)c4c(N5CC6CCC(C5)N6)nc(OCC5(CN6CCC(C7CCN(Cc8ccc9c(c8)CN(C(=O)c8cc(C(C)C)c(O)cc8O)C9)CC7)CC6)CC5)nc4c3F)c12 [Compound 186] | < 100 | < 100 | < 100
20 | C#Cc1c(F)ccc2cc(O)cc(-c3ncc4c(N5CC6CNC(C6)C5)nc(OCC5(CN6CCC(C7CCN(Cc8ccc9c(c8)CN(C(=O)c8cc(O)c(C(C)C)cc8O)C9)CC7)CC6)CC5)nc4c3F)c12 (stereo not shown) [Compound 187] | 100 to 1000 | > 1000 | 100 to 1000
21 | C#Cc1c(F)ccc2cc(O)cc(-c3ncc4c(N5CC6CNC(C6)C5)nc(OCC5(CN6CCN(C7CCN(Cc8ccc(-n9c(C(=O)NC(C)C(F)(F)F)nnc9-c9cc(C(C)C)c(O)cc9O)cc8)CC7)CC6)CC5)nc4c3F)c12 (stereo not shown) [Compound 188] | 100 to 1000 | 100 to 1000 | 100 to 1000
22 | C#Cc1c(F)ccc2cc(O)cc(-c3nc(OC)c4c(N5CC6CNC(C6)C5)nc(OCC5(CN6CCN(Cc7ccc(-n8c(C(=O)NCC)nnc8-c8cc(C(C)C)c(O)cc8O)cc7)CC6)CC5)nc4c3F)c12 (stereo not shown) [Compound 189] | < 100 | < 100 | < 100
23 | C#Cc1c(F)ccc2cc(O)cc(-c3nc(OC)c4c(N5CC6CCC(C5)N6)nc(OCC5(CN6CCN(Cc7ccc8c(c7)CN(C(=O)c7cc(C(C)C)c(O)cc7O)C8)CC6)CC5)nc4c3F)c12 [Compound 190] | < 100 | < 100 | < 100
24 | C#Cc1cccc2cc(O)cc(-c3ncc4c(N5CC6CCC(C5)N6)nc(OCC5(CN6CCN(CC7CCN(Cc8ccc(-n9c(C(=O)NCC)nnc9-c9cc(C(C)C)c(OC)cc9OC)cc8)CC7)CC6)CC5)nc4c3F)c12 [Compound 195] | – | 100 to 1000 | 100 to 1000
25 | C#Cc1cccc2cc(O)cc(-c3ncc4c(N5CC6CNC(C6)C5)nc(OCC5(CN6CCN(CC7CCN(Cc8ccc(-n9c(C(=O)NCC)nnc9-c9cc(C(C)C)c(O)cc9O)cc8)CC7)CC6)CC5)nc4c3F)c12 (stereo not shown) [Compound 197] | – | 100 to 1000 | < 100
26 | C#Cc1c(F)ccc2cc(O)cc(-c3ncc4c(N5CC6CCC(C5)N6)nc(OCC5(CN6CCC(C7CCN(Cc8ccc9c(c8)CN(C(=O)c8cc(C(C)C)c(OC)cc8OC)C9)CC7)CC6)CC5)nc4c3F)c12 [Compound 199] | – | 100 to 1000 | 100 to 1000
27 | C#Cc1c(F)ccc2cc(O)cc(-c3ncc4c(N5CC6CCC(C5)N6)nc(OCC5(CN6CCN(C7CCN(Cc8ccc(-n9c(C(=O)NC(C)C(F)(F)F)nnc9-c9cc(C(C)C)c(OC)cc9OC)cc8)CC7)CC6)CC5)nc4c3F)c12 (stereo not shown) [Compound 200] | – | > 1000 | 100 to 1000
28 | C#Cc1c(F)ccc2cc(O)cc(-c3ncc4c(N5CC6CCC(C5)N6)nc(OCC5(CN6CC(N7CCN(Cc8ccc9c(c8)CN(C(=O)c8cc(C(C)C)c(O)cc8O)C9)CC7)C6)CC5)nc4c3F)c12 [Compound 202] | – | 100 to 1000 | 100 to 1000
29 | C#Cc1c(F)ccc2cc(O)cc(-c3ncc4c(N5CC6CCC(C5)N6)nc(OCC5(CN6CC(N7CCN(Cc8ccc(-n9c(C(=O)NC(C)C(F)(F)F)nnc9-c9cc(C(C)C)c(O)cc9O)cc8)CC7)C6)CC5)nc4c3F)c12 (stereo not shown) [Compound 203] | – | < 100 | –
30 | C#Cc1c(F)ccc2cc(O)cc(-c3ncc4c(N5CC6CCC(C5)N6)nc(OC[C@H]5CCCN5Cc5ccc6c(c5)CN(C(=O)c5cc(C(C)C)c(O)cc5O)C6)nc4c3F)c12 [Compound 204] | – | > 1000 | 100 to 1000
